In patent publication US12281117B2, “Small molecule immune agonists and immune targeting compounds and application thereof” (SHENZHEN UNIVERSITY, priority 2018, dated 2025):

Columns and labels:
[1] = test system: CD274 (PD-L1) on B16 cells; assay: Inhibitory activity against CD274 (PD-L1) on B16 cells; assay type: cell-based; conditions: FIG. 61
spleen lymphocytes = assay: Immunostimulatory effects on spleen lymphocytes, cytokines in supernatant by ELISA; assay type: cell-based, BALB/c or C57BL/6 mouse; conditions: FIG. 59 and FIG. 60; compared with JQ1 plus SZU-101
Method: Effect Example 1: Detection of the Immunostimulatory Effects of the SZU-Series Small-Molecule Immune Agonists and Novel Immune Targeted Compounds of the Present Invention on Spleen Lymphocytes
1. Extraction of Spleen Lymphocytes
(1) BALB/c or C57BL/6 mouse spleens were collected, ground in a small dish containing Mouse Lymphocyte Separation Medium, and filtered through a filter membrane (with a pore size of […]) to obtain a cell suspension, which was treated by centrifugation to obtain lymphocytes. The isolated lymphocytes were placed in a 15 mL centrifuge tube, into which 10 mL of 1640 complete medium was added. The mixture was mixed uniformly and centrifuged at 250 g for 10 minutes. The supernatant was discarded.
(2) The cells were re-suspended with 1 mL of erythrocyte lysate. After 1 minute of lysis, 4 mL of 1640 complete medium was added for termination. The tube was centrifuged at 1,000 rpm for 5 minutes. The supernatant was discarded.
(3) The cells were re-suspended with 2 mL of 1640 complete medium, counted, and then seeded into 24-well plates at a density of 1×10^6 cells per well.
2. Preparation of the Samples
The spleen lymphocytes seeded into the 24-well plates were stimulated with different concentrations of the SZU-series small-molecule immune agonists and novel immune targeted compounds. The 24-well plate was transferred into an incubator. […]

COCCOc1nc(N)c2nc(O)n(Cc3ccc(CNC(=O)CCC(=O)NCCOCCOCCOCCNC(=O)C[C@@H]4N=C(c5ccc(Cl)cc5)c5c(sc(C)c5C)-n5c(C)nnc54)cc3)c2n1 [SZU-119]
inhibitory activity against CD274 (PD-L1) on B16 cells [1]: retains the inhibitory activity of JQ1 | activity of TLR7 agonist for stimulating immune cytokine (spleen lymphocytes): retains the activity of TLR7 agonist
